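1) Cells in 96-well plates. 2) Compound, 48 h, 5 concentrations. 3) Linear interpolation between surrounding doses. 4) Unreached endpoint = highest concentration. Abbreviation: GI50, concentration required for 50% inhibition of growth.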 Calls of active or inactive are those of the source. Cut-off read from the data, not from the text of the source: active = GI50 up to about 1.1 µM and inactive = higher.
Legend:
Test in all cases: NCI-60 cell line screen, 48 h
[1] = system: KM12
[2] = system: XF498
[3] = system: DMS-273
[4] = system: SR
[5] = system: SW-620
[6] = system: IGROV-1
[7] = system: K562
[8] = system: TK-10
[9] = system: CAKI-1
[10] = system: MOLT-4
[11] = system: NCI-H226
[12] = system: COLO 205
[13] = system: HCT-15
[14] = system: OVCAR-3
[15] = system: HOP-18
[16] = system: HCC 2998
[17] = system: A549
[18] = system: EKVX
[19] = system: DLD-1
[20] = system: SK-MEL-5
[21] = system: SK-MEL-2
[22] = system: OVCAR-8
[23] = system: SN12C
[24] = system: 786-0
[25] = system: HL-60
[26] = system: NCI-H23
[27] = system: U-251
[28] = system: ACHN
[29] = system: SF-539
[30] = system: HCT-116
[31] = system: UO-31
[32] = system: RXF 393
[33] = system: UACC-257
[34] = system: LXFL 529
[35] = system: LOX IMVI
[36] = system: A498
[37] = system: SK-OV-3
[38] = system: HT-29
[39] = system: CCRF-CEM
[40] = system: SF-268
[41] = system: NCI-H460
[42] = system: DMS-114
[43] = system: SNB-78
[44] = system: M19-MEL
[45] = system: NCI-H522
[46] = system: SK-MEL-28
[47] = system: SF-295
[48] = system: M14
[49] = system: UACC-62
[50] = system: HOP-92
[51] = system: SNB-19
[52] = system: OVCAR-4
[53] = system: KM-20L2
[54] = system: HOP-62
[55] = system: SNB-75
[56] = system: Malme-3M
[57] = system: RPMI-8226
[58] = system: OVCAR-5

Q: `CSc1nc(-c2ccc(Cl)cc2)c(C#N)c(=O)n1C1OC(COC(C)=O)C(OC(C)=O)C(OC(C)=O)C1OC(C)=O` (stereo not given) was tested. Which GI50 [1] did it give?
A: > 100 µM (inactive)

Q: And the GI50 [2]?
A: > 100 µM (inactive)

Q: What about the GI50 [3] of the same compound?
A: > 100 µM (inactive)

Q: What about the GI50 [4] of the same compound?
A: > 100 µM (inactive)

Q: And the GI50 [5]?
A: > 100 µM (inactive)

Q: And the GI50 [6]?
A: 57.1 µM (inactive)

Q: What about the GI50 [7] of the same compound?
A: > 100 µM (inactive)

Q: And the GI50 [8]?
A: > 100 µM (inactive)

Q: And the GI50 [9]?
A: > 100 µM (inactive)

Q: What about the GI50 [10] of the same compound?
A: > 75 µM (inactive)

Q: What about the GI50 [11] of the same compound?
A: 33 µM (inactive)

Q: And the GI50 [12]?
A: > 100 µM (inactive)

Q: And the GI50 [13]?
A: > 100 µM

Q: And the GI50 [14]?
A: 12.6 µM (inactive)

Q: What about the GI50 [15] of the same compound?
A: 29.9 µM (inactive)

Q: And the GI50 [16]?
A: > 100 µM (inactive)

Q: And the GI50 [17]?
A: > 100 µM (inactive)

Q: What about the GI50 [18] of the same compound?
A: > 100 µM (inactive)

Q: And the GI50 [19]?
A: > 100 µM (inactive)

Q: And the GI50 [20]?
A: > 100 µM (inactive)

Q: And the GI50 [21]?
A: 53.8 µM (inactive)

Q: And the GI50 [22]?
A: > 100 µM (inactive)

Q: And the GI50 [23]?
A: > 100 µM (inactive)

Q: And the GI50 [24]?
A: > 100 µM (inactive)

Q: And the GI50 [25]?
A: > 100 µM (inactive)

Q: `O=C(/C=C/c1ccc(O)cc1)c1cc(Cl)ccc1O` was tested. Which GI50 [1] did it give?
A: > 100 µM (inactive)

Q: What about the GI50 [2] of the same compound?
A: 23.7 µM (inactive)

Q: And the GI50 [26]?
A: 40.5 µM (inactive)

Q: And the GI50 [4]?
A: 16.9 µM (inactive)

Q: What about the GI50 [27] of the same compound?
A: 37.8 µM (inactive)

Q: And the GI50 [5]?
A: 35.4 µM (inactive)

Q: And the GI50 [28]?
A: 70.8 µM (inactive)

Q: What about the GI50 [29] of the same compound?
A: 18.8 µM (inactive)

Q: And the GI50 [6]?
A: 57.4 µM (inactive)

Q: What about the GI50 [7] of the same compound?
A: 24.1 µM (inactive)

Q: And the GI50 [30]?
A: 22.6 µM (inactive)

Q: And the GI50 [8]?
A: > 100 µM (inactive)

Q: What about the GI50 [31] of the same compound?
A: 21.8 µM (inactive)

Q: And the GI50 [9]?
A: > 100 µM (inactive)

Q: And the GI50 [32]?
A: 28.9 µM (inactive)

Q: What about the GI50 [33] of the same compound?
A: 71.8 µM (inactive)

Q: And the GI50 [10]?
A: 16.6 µM (inactive)

Q: What about the GI50 [11] of the same compound?
A: 95.9 µM (inactive)

Q: And the GI50 [12]?
A: > 100 µM (inactive)

Q: What about the GI50 [34] of the same compound?
A: 42.5 µM (inactive)

Q: What about the GI50 [35] of the same compound?
A: 18.7 µM (inactive)

Q: What about the GI50 [36] of the same compound?
A: > 100 µM (inactive)

Q: And the GI50 [37]?
A: > 100 µM (inactive)

Q: And the GI50 [38]?
A: 34.5 µM (inactive)

Q: What about the GI50 [39] of the same compound?
A: 6.32 µM (inactive)

Q: And the GI50 [40]?
A: 42.8 µM (inactive)

Q: What about the GI50 [14] of the same compound?
A: 28.2 µM (inactive)

Q: What about the GI50 [41] of the same compound?
A: 50.2 µM (inactive)

Q: What about the GI50 [15] of the same compound?
A: > 100 µM (inactive)

Q: What about the GI50 [16] of the same compound?
A: 62.8 µM (inactive)

Q: What about the GI50 [42] of the same compound?
A: 23.3 µM (inactive)

Q: And the GI50 [17]?
A: 39.9 µM (inactive)

Q: And the GI50 [18]?
A: 86.3 µM (inactive)

Q: What about the GI50 [43] of the same compound?
A: 29.9 µM (inactive)

Q: And the GI50 [19]?
A: 43.6 µM (inactive)

Q: What about the GI50 [44] of the same compound?
A: 72.1 µM (inactive)

Q: And the GI50 [45]?
A: 17.2 µM (inactive)

Q: And the GI50 [46]?
A: 44.2 µM (inactive)

Q: What about the GI50 [47] of the same compound?
A: 35.2 µM (inactive)

Q: And the GI50 [48]?
A: 55.3 µM (inactive)

Q: What about the GI50 [20] of the same compound?
A: 37.2 µM (inactive)

Q: What about the GI50 [49] of the same compound?
A: 40.3 µM (inactive)

Q: And the GI50 [50]?
A: 85.3 µM (inactive)

Q: What about the GI50 [51] of the same compound?
A: 44.9 µM (inactive)

Q: What about the GI50 [22] of the same compound?
A: 39.4 µM (inactive)

Q: And the GI50 [23]?
A: 42.4 µM (inactive)

Q: And the GI50 [52]?
A: 38.8 µM (inactive)

Q: What about the GI50 [53] of the same compound?
A: > 100 µM (inactive)

Q: And the GI50 [24]?
A: 77.6 µM (inactive)

Q: And the GI50 [25]?
A: 17.8 µM (inactive)

Q: And the GI50 [54]?
A: > 100 µM (inactive)

Q: What about the GI50 [55] of the same compound?
A: 46.5 µM (inactive)

Q: What about the GI50 [56] of the same compound?
A: 47.2 µM (inactive)

Q: `CS(=O)(=O)OCCN(CCOS(C)(=O)=O)c1ccc(/C=N/N=c2/nc[nH]c3nc[nH]c23)cc1` was tested. Which GI50 [1] did it give?
A: 15.6 µM (inactive)

Q: What about the GI50 [2] of the same compound?
A: 21.2 µM (inactive)

Q: What about the GI50 [26] of the same compound?
A: 14.8 µM (inactive)

Q: And the GI50 [57]?
A: 15.3 µM (inactive)

Q: And the GI50 [3]?
A: 14.9 µM (inactive)

Q: What about the GI50 [4] of the same compound?
A: 4.57 µM (inactive)

Q: And the GI50 [27]?
A: 16.3 µM (inactive)

Q: And the GI50 [5]?
A: 16 µM (inactive)

Q: And the GI50 [28]?
A: 17.4 µM (inactive)

Q: And the GI50 [29]?
A: 18.3 µM (inactive)

Q: What about the GI50 [6] of the same compound?
A: 19.1 µM (inactive)

Q: And the GI50 [7]?
A: 24.9 µM (inactive)

Q: What about the GI50 [30] of the same compound?
A: 17.3 µM (inactive)

Q: And the GI50 [8]?
A: 26.9 µM (inactive)

Q: What about the GI50 [31] of the same compound?
A: 28.3 µM (inactive)

Q: And the GI50 [9]?
A: 14.2 µM (inactive)

Q: And the GI50 [32]?
A: 15.7 µM (inactive)

Q: What about the GI50 [58] of the same compound?
A: 20.6 µM (inactive)

Q: And the GI50 [33]?
A: 19.8 µM (inactive)

Q: And the GI50 [10]?
A: 4.84 µM (inactive)

Q: What about the GI50 [11] of the same compound?
A: 19.3 µM (inactive)

Q: And the GI50 [12]?
A: 17.2 µM (inactive)

Q: And the GI50 [35]?
A: 15.1 µM (inactive)

Q: And the GI50 [36]?
A: 25.7 µM (inactive)

Q: And the GI50 [37]?
A: 26.2 µM (inactive)

Q: And the GI50 [13]?
A: 31 µM

Q: And the GI50 [38]?
A: 17.8 µM (inactive)

Q: What about the GI50 [39] of the same compound?
A: 8.09 µM (inactive)

Q: What about the GI50 [40] of the same compound?
A: 12.9 µM (inactive)

Q: And the GI50 [14]?
A: 13.4 µM (inactive)

Q: What about the GI50 [41] of the same compound?
A: 7.76 µM (inactive)

Q: And the GI50 [15]?
A: 34.6 µM (inactive)

Q: What about the GI50 [16] of the same compound?
A: 19.4 µM (inactive)

Q: And the GI50 [42]?
A: 10.9 µM (inactive)

Q: And the GI50 [17]?
A: 26.2 µM (inactive)

Q: And the GI50 [18]?
A: 33.2 µM (inactive)

Q: What about the GI50 [43] of the same compound?
A: 24.2 µM (inactive)

Q: And the GI50 [19]?
A: 26.8 µM (inactive)

Q: What about the GI50 [44] of the same compound?
A: 20.5 µM (inactive)

Q: What about the GI50 [45] of the same compound?
A: 12.3 µM (inactive)

Q: What about the GI50 [46] of the same compound?
A: 19.3 µM (inactive)

Q: What about the GI50 [47] of the same compound?
A: 14.9 µM (inactive)

Q: What about the GI50 [48] of the same compound?
A: 17.6 µM (inactive)

Q: What about the GI50 [20] of the same compound?
A: 15.9 µM (inactive)

Q: And the GI50 [49]?
A: 12.9 µM (inactive)

Q: What about the GI50 [50] of the same compound?
A: 16.9 µM (inactive)

Q: What about the GI50 [51] of the same compound?
A: 27.6 µM (inactive)

Q: And the GI50 [21]?
A: 20.4 µM (inactive)

Q: And the GI50 [22]?
A: 20.7 µM (inactive)

Q: And the GI50 [23]?
A: 35.2 µM (inactive)

Q: What about the GI50 [52] of the same compound?
A: 22.7 µM (inactive)

Q: And the GI50 [53]?
A: 21.5 µM (inactive)

Q: What about the GI50 [24] of the same compound?
A: 16.3 µM (inactive)

Q: What about the GI50 [25] of the same compound?
A: 6.04 µM (inactive)

Q: And the GI50 [54]?
A: 28.2 µM (inactive)

Q: What about the GI50 [55] of the same compound?
A: 14.6 µM (inactive)

Q: And the GI50 [56]?
A: 27 µM (inactive)
